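These data come from cells grown in 96-well plates and exposed to compound for 48 hours at five concentrations. GI50 is the concentration that inhibits growth by half.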 Calls of active or inactive are those of the source. No stated cut-off is given here; in the data, active = GI50 up to about 1.1 µM and inactive = higher.
Tests used:
Assay in all cases: NCI tumour cell line growth inhibition, 48 h
TK-10 = test system: TK-10
OVCAR-5 = test system: OVCAR-5
SK-MEL-28 = test system: SK-MEL-28
HL-60 = test system: HL-60
HCT-116 = test system: HCT-116
MDA-MB-231 = test system: MDA-MB-231
ACHN = test system: ACHN
CCRF-CEM = test system: CCRF-CEM
PC-3 = test system: PC-3
M14 = test system: M14
CAKI-1 = test system: CAKI-1
HOP-92 = test system: HOP-92
NCI-H23 = test system: NCI-H23
MCF7 = test system: MCF7
A549 = test system: A549
HCT-15 = test system: HCT-15
NCI-H226 = test system: NCI-H226
Hs-578T = test system: Hs-578T
NCI-H522 = test system: NCI-H522
BT-549 = test system: BT-549

| SMILES | GI50 (TK-10) | GI50 (OVCAR-5) | GI50 (SK-MEL-28) | GI50 (HL-60) | GI50 (HCT-116) | GI50 (MDA-MB-231) | GI50 (ACHN) | GI50 (CCRF-CEM) | GI50 (PC-3) | GI50 (M14) | GI50 (CAKI-1) | GI50 (HOP-92) | GI50 (NCI-H23) | GI50 (MCF7) | GI50 (A549) | GI50 (HCT-15) [µM] | GI50 (NCI-H226) | GI50 (Hs-578T) | GI50 (NCI-H522) | GI50 (BT-549) |
| --- | --- | --- | --- | --- | --- | --- | --- | --- | --- | --- | --- | --- | --- | --- | --- | --- | --- | --- | --- | --- |
| c1ccc(-n2nc3ccc4nonc4c3n2)cc1 | > 100 µM (inactive) | > 100 µM (inactive) | > 100 µM (inactive) | > 100 µM (inactive) | > 100 µM (inactive) | > 100 µM (inactive) | > 100 µM (inactive) | > 100 µM (inactive) | > 100 µM (inactive) | > 100 µM (inactive) | > 100 µM (inactive) | > 100 µM (inactive) | > 100 µM (inactive) | > 100 µM (inactive) | > 100 µM (inactive) | > 100 |  |  |  |  |
| C=CCC(NCc1ccccc1)[C@H](OCc1ccccc1)[C@@H]1COC(C)(C)O1 (stereo partly drawn) | 23.8 µM (inactive) | 46.2 µM (inactive) | 47.1 µM (inactive) |  | 23.7 µM (inactive) | > 100 µM (inactive) | 42.6 µM (inactive) | 28.1 µM (inactive) | 31.9 µM (inactive) | 36.2 µM (inactive) |  | 12.7 µM (inactive) | 28.3 µM (inactive) | 29.4 µM (inactive) | 39 µM (inactive) | 23.7 | 15.6 µM (inactive) | 24.7 µM (inactive) |  |  |
| CC(=O)NCc1nc(C#N)c(N)o1 | > 100 µM (inactive) | > 100 µM (inactive) | > 100 µM (inactive) | > 100 µM (inactive) | > 100 µM (inactive) | > 100 µM (inactive) | > 100 µM (inactive) | > 100 µM (inactive) | > 100 µM (inactive) | > 100 µM (inactive) | > 100 µM (inactive) | > 100 µM (inactive) | > 100 µM (inactive) | > 100 µM (inactive) | > 100 µM (inactive) | > 100 | > 100 µM (inactive) | > 100 µM (inactive) | > 100 µM (inactive) |  |
| Cc1cc(O)nc(NN2C(Cl)C(=O)C2c2ccccc2O)n1 (stereo not drawn) | 19.4 µM (inactive) | 12.9 µM (inactive) | 4.94 µM (inactive) | 0.689 µM (active) | 2.14 µM (inactive) | 4.39 µM (inactive) | 1.44 µM (inactive) | 0.547 µM (active) | 1.32 µM (inactive) | 3.15 µM (inactive) | 1.64 µM (inactive) | 5.26 µM (inactive) | 5.45 µM (inactive) | 2.48 µM (inactive) | 4.26 µM (inactive) | 0.65 | 2.39 µM (inactive) | 26.8 µM (inactive) |  |  |
| CN1C(=O)C(O)CC1c1cccc(F)c1 (stereo not drawn) |  | > 100 µM (inactive) | > 100 µM (inactive) | > 100 µM (inactive) | > 100 µM (inactive) | > 100 µM (inactive) | > 100 µM (inactive) | > 100 µM (inactive) | > 100 µM (inactive) | > 100 µM (inactive) | > 100 µM (inactive) | > 100 µM (inactive) | > 100 µM (inactive) | > 100 µM (inactive) | > 100 µM (inactive) | > 100 | > 100 µM (inactive) |  | > 100 µM (inactive) | > 100 µM (inactive) |
| CCOC(=O)CCC(NC(=O)c1ccc(/N=C/c2nc3cc(C(F)(F)F)ccc3nc2-c2ccccc2)cc1)C(=O)OCC (stereo not drawn) | 12.1 µM (inactive) | > 50 µM (inactive) | > 50 µM (inactive) | 8.91 µM (inactive) | 6.56 µM (inactive) |  | 11.1 µM (inactive) | > 50 µM (inactive) | > 50 µM (inactive) | 23.9 µM (inactive) | 32.4 µM (inactive) | 4.88 µM (inactive) | 7.82 µM (inactive) |  | 25.1 µM (inactive) | > 50 | > 50 µM (inactive) |  | 12.3 µM (inactive) |  |
| CCOC(=O)c1cc(-c2cc(OC)c(OC)c([N+](=O)[O-])c2)c([N+](=O)[O-])n1C | > 10 µM (inactive) | > 10 µM (inactive) |  | 3.37 µM (inactive) | 5.33 µM (inactive) |  | 9.04 µM (inactive) | 3.24 µM (inactive) |  | 8.57 µM (inactive) |  | > 10 µM (inactive) | 6.37 µM (inactive) |  | > 10 µM (inactive) | 4.58 | > 10 µM (inactive) | 4.21 µM (inactive) | 4.13 µM (inactive) | > 10 µM (inactive) |
| COC(=O)c1cc(NC(=O)c2cc(NC(=O)c3cc([N+](=O)[O-])cn3C)cn2C)cn1C | 20.3 µM (inactive) | 81.1 µM (inactive) | > 100 µM (inactive) | 86.5 µM (inactive) | 43.4 µM (inactive) | 35.6 µM (inactive) | 66.1 µM (inactive) | > 100 µM (inactive) | 94.2 µM (inactive) | > 100 µM (inactive) | 69.2 µM (inactive) | 14.3 µM (inactive) | 30.8 µM (inactive) | > 100 µM (inactive) | > 100 µM (inactive) | 82 | > 100 µM (inactive) |  |  | > 100 µM (inactive) |
| Cc1cc(-c2c(Br)cc(C(=O)O)n2C)on1 | > 100 µM (inactive) | > 100 µM (inactive) | > 100 µM (inactive) | > 100 µM (inactive) | > 100 µM (inactive) | > 100 µM (inactive) | > 100 µM (inactive) | > 100 µM (inactive) | > 100 µM (inactive) | > 100 µM (inactive) | > 100 µM (inactive) | > 100 µM (inactive) | > 100 µM (inactive) |  | > 100 µM (inactive) | > 100 | > 100 µM (inactive) |  | > 100 µM (inactive) | > 100 µM (inactive) |
| CN1CCN(c2nc3ccccc3nc2C(=O)c2ccc(Cl)cc2)CC1 | 35.6 µM (inactive) | > 100 µM (inactive) | 50.7 µM (inactive) | 31 µM (inactive) | 35.2 µM (inactive) |  | > 100 µM (inactive) | 48.6 µM (inactive) | 51.2 µM (inactive) | 22.2 µM (inactive) | 40.4 µM (inactive) | 26.5 µM (inactive) | 49.4 µM (inactive) | 27.7 µM (inactive) | 54.2 µM (inactive) | 55.6 |  | 56.2 µM (inactive) | 38.1 µM (inactive) |  |
| COc1ccc2c(c1)OCC1Cc3cc4c(cc3OC21)OCO4 (stereo not drawn) | 28.1 µM (inactive) | 60.7 µM (inactive) |  |  | 31 µM (inactive) | > 100 µM (inactive) | 97.3 µM (inactive) | 51.1 µM (inactive) | 41.6 µM (inactive) | 32.1 µM (inactive) | 47 µM (inactive) | > 100 µM (inactive) | > 100 µM (inactive) | 46.8 µM (inactive) | 38.8 µM (inactive) | 30.4 | > 100 µM (inactive) |  | 49.2 µM (inactive) | 61 µM (inactive) |
| COc1ccc(/N=N/c2ccc3oc(=O)c(C(=O)Nc4ccccc4C)cc3c2)cc1 | > 10 µM (inactive) | > 10 µM (inactive) | > 10 µM (inactive) |  |  | > 10 µM (inactive) | 8.3 µM (inactive) |  | > 10 µM (inactive) | > 10 µM (inactive) | > 10 µM (inactive) | > 10 µM (inactive) | > 10 µM (inactive) | > 10 µM (inactive) |  | > 10 | > 10 µM (inactive) | > 10 µM (inactive) | > 10 µM (inactive) |  |
| NC(=O)c1ccc(Cl)c([N+](=O)[O-])c1 | > 100 µM (inactive) | > 100 µM (inactive) | > 100 µM (inactive) | > 100 µM (inactive) | > 100 µM (inactive) |  | > 100 µM (inactive) | > 100 µM (inactive) |  | > 100 µM (inactive) | > 100 µM (inactive) | > 100 µM (inactive) | > 100 µM (inactive) |  | > 100 µM (inactive) | > 100 | > 100 µM (inactive) |  | 48.9 µM (inactive) |  |
| C[C@]12CCC(O)CC1=CC[C@@H]1[C@@H]2CC[C@]2(C)C(=O)[C@H](n3ccnc3)C[C@@H]12 (stereo partly drawn) | > 100 µM (inactive) | > 100 µM (inactive) | 79.4 µM (inactive) | 11.6 µM (inactive) | 54.5 µM (inactive) | > 100 µM (inactive) | > 100 µM (inactive) | 22.1 µM (inactive) | 28.6 µM (inactive) | 77.6 µM (inactive) | > 100 µM (inactive) | > 100 µM (inactive) | 33.8 µM (inactive) | 35.8 µM (inactive) | 91.4 µM (inactive) | > 100 | > 100 µM (inactive) | > 100 µM (inactive) | 33.5 µM (inactive) |  |
| COc1ccc(Nc2nc3ccccc3nc2-c2cccs2)cc1OC | > 10 µM (inactive) | > 10 µM (inactive) | > 10 µM (inactive) | > 10 µM (inactive) | > 10 µM (inactive) | > 10 µM (inactive) | > 10 µM (inactive) | > 10 µM (inactive) | 9.35 µM (inactive) | > 10 µM (inactive) | > 10 µM (inactive) | > 10 µM (inactive) | > 10 µM (inactive) | > 10 µM (inactive) | > 10 µM (inactive) | > 10 | > 10 µM (inactive) | > 10 µM (inactive) | > 10 µM (inactive) |  |
| CC1(C)CC(=O)C(=[N+]=[N-])C(=O)C1 | > 100 µM (inactive) | > 100 µM (inactive) | > 100 µM (inactive) | > 100 µM (inactive) | > 100 µM (inactive) |  | > 100 µM (inactive) | > 100 µM (inactive) |  | > 100 µM (inactive) | > 100 µM (inactive) | > 100 µM (inactive) | > 100 µM (inactive) |  | > 100 µM (inactive) | > 100 | > 100 µM (inactive) |  | > 100 µM (inactive) |  |
| CCOC(=O)/C(=C\NC(=S)Nc1ccc(Cl)c(Cl)c1)C(=O)c1ccccc1 |  | 36.2 µM (inactive) | 53.2 µM (inactive) | 22.8 µM (inactive) | 46.5 µM (inactive) | 25.9 µM (inactive) | 18.2 µM (inactive) | 31.1 µM (inactive) | 21.5 µM (inactive) | 27.3 µM (inactive) | 12.9 µM (inactive) |  | 8.61 µM (inactive) | 33.3 µM (inactive) | 43.1 µM (inactive) | 29.1 | 13.9 µM (inactive) | 2.11 µM (inactive) | 6.3 µM (inactive) |  |
